{
  "source": "patent US20100075930A1",
  "about": "“Salicylic salt compositions and related method of treatment of cardiac conditions” (priority 2008, published 2010)",
  "key": {"[1]": {"conditions": "cited from earlier work"}, "[2]": {"conditions": "cited from earlier work", "remark": "listed apart in the source"}, "[3]": {"conditions": "cited from earlier work", "remark": "listed apart in the source"}, "[4]": {"conditions": "low doses, 75-100 mg daily; cited from earlier work"}, "[5]": {"conditions": "for level of salicylic acid in the blood: 1000 mg under the tongue", "experimental": "In order to assess the ability and the rate of absorption of a choline salicylate tablet under the tongue, the following experiment was conducted:"}},
  "note": "Read-outs that look alike come from different tables or passages of the source.",
  "data": [
    {"smiles": "CC(=O)Oc1ccccc1C(=O)O", "note": "[Aspirin, acetyl salicylic acid]", "values": [
      {"measurement": "level of salicylic acid in the blood", "setting": "[1]; after digestion of 1000 mg, reached after 2 hours only", "value": 100, "unit": "mg/Lt"},
      {"measurement": "patients who develop ulcers, perforations, bleeding, obstruction, stricture and/or enteropathy", "setting": "[2]; patients taking aspirin", "value": "More than 22%"},
      {"measurement": "water solubility", "setting": "[3]", "value": "not soluble in water"},
      {"measurement": "reduction of coronary events", "setting": "[4]", "value": 50, "unit": "%"}
    ]},
    {"smiles": "C[N+](C)(C)CCO.O=C([O-])c1ccccc1O", "note": "[choline salicylate]", "values": [
      {"measurement": "level of salicylic acid in the blood", "setting": "[5]; after 4 minutes", "value": 21, "unit": "mg/Lt"},
      {"measurement": "level of salicylic acid in the blood", "setting": "[5]; time 0 min", "value": 0.111, "unit": "mmol/L"},
      {"measurement": "level of salicylic acid in the blood", "setting": "[5]; time 0 min, conversion factor 0.00724", "value": 15.331, "unit": "mg/L"},
      {"measurement": "level of salicylic acid in the blood", "setting": "[5]; time 2 min", "value": 0.124, "unit": "mmol/L"},
      {"measurement": "level of salicylic acid in the blood", "setting": "[5]; time 2 min, conversion factor 0.00724", "value": 17.127, "unit": "mg/L"},
      {"measurement": "level of salicylic acid in the blood", "setting": "[5]; time 4 min", "value": 0.155, "unit": "mmol/L"},
      {"measurement": "level of salicylic acid in the blood", "setting": "[5]; time 4 min, conversion factor 0.00724", "value": 21.409, "unit": "mg/L"},
      {"measurement": "level of salicylic acid in the blood", "setting": "[5]; time 6 min", "value": 0.132, "unit": "mmol/L"},
      {"measurement": "level of salicylic acid in the blood", "setting": "[5]; time 6 min, conversion factor 0.00724", "value": 18.232, "unit": "mg/L"},
      {"measurement": "level of salicylic acid in the blood", "setting": "[5]; time 8 min", "value": 0.096, "unit": "mmol/L"},
      {"measurement": "level of salicylic acid in the blood", "setting": "[5]; time 8 min, conversion factor 0.00724", "value": 13.260, "unit": "mg/L"},
      {"measurement": "level of salicylic acid in the blood", "setting": "[5]; time 10 min", "value": 0.089, "unit": "mmol/L"},
      {"measurement": "level of salicylic acid in the blood", "setting": "[5]; time 10 min, conversion factor 0.00724", "value": 12.293, "unit": "mg/L"},
      {"measurement": "level of salicylic acid in the blood", "setting": "[5]; time 12 min", "value": 0.074, "unit": "mmol/L"},
      {"measurement": "level of salicylic acid in the blood", "setting": "[5]; time 12 min, conversion factor 0.00724", "value": 10.221, "unit": "mg/L"},
      {"measurement": "level of salicylic acid in the blood", "setting": "[5]; time 14 min", "value": 0.067, "unit": "mmol/L"},
      {"measurement": "level of salicylic acid in the blood", "setting": "[5]; time 14 min, conversion factor 0.00724", "value": 9.254, "unit": "mg/L"},
      {"measurement": "level of salicylic acid in the blood", "setting": "[5]; time 19 min", "value": 0.039, "unit": "mmol/L"},
      {"measurement": "level of salicylic acid in the blood", "setting": "[5]; time 19 min, conversion factor 0.00724", "value": 5.387, "unit": "mg/L"},
      {"measurement": "level of salicylic acid in the blood", "setting": "[5]; time 24 min", "value": 0.023, "unit": "mmol/L"},
      {"measurement": "level of salicylic acid in the blood", "setting": "[5]; time 24 min, conversion factor 0.00724", "value": 3.177, "unit": "mg/L"},
      {"measurement": "level of salicylic acid in the blood", "setting": "[5]; time 29 min", "value": 0.040, "unit": "mmol/L"},
      {"measurement": "level of salicylic acid in the blood", "setting": "[5]; time 29 min, conversion factor 0.00724", "value": 5.525, "unit": "mg/L"},
      {"measurement": "level of salicylic acid in the blood", "setting": "[5]; time 34 min", "value": 0.036, "unit": "mmol/L"},
      {"measurement": "level of salicylic acid in the blood", "setting": "[5]; time 34 min, conversion factor 0.00724", "value": 4.972, "unit": "mg/L"},
      {"measurement": "level of salicylic acid in the blood", "setting": "[5]; time 39 min", "value": 0.045, "unit": "mmol/L"},
      {"measurement": "level of salicylic acid in the blood", "setting": "[5]; time 39 min, conversion factor 0.00724", "value": 6.215, "unit": "mg/L"},
      {"measurement": "level of salicylic acid in the blood", "setting": "[5]; time 44 min", "value": 0.054, "unit": "mmol/L"},
      {"measurement": "level of salicylic acid in the blood", "setting": "[5]; time 44 min, conversion factor 0.00724", "value": 7.459, "unit": "mg/L"},
      {"measurement": "salicylic acid presented and available to act in the blood", "setting": "[5]; 4 minutes after administration, assuming the blood volume is 5 litres", "value": 100, "unit": "mg"},
      {"measurement": "time of salicylic acid blood level peak after administration", "setting": "[5]; sublingual method", "value": 4, "unit": "min"},
      {"measurement": "time of salicylic acid blood level peak after administration", "setting": "[1]; oral administration", "value": 2, "unit": "h"},
      {"measurement": "reduction of gastrointestinal complications", "setting": "[2]; as a salt syrup (compared to acid tablet)", "value": 40, "unit": "%"},
      {"measurement": "side effects in clinical use", "setting": "[2]; syrup absorbed through the gastro intestinal tract", "value": "no major side effects"}
    ]}
  ]
}
